Laboratory results taken from patent US12156850B2, “Preservative removal from eye drops containing hydrophilic drugs” (University of Florida Research Foundation, Inc., priority 2017, dated 2024).

Columns and labels:
[1] = Equilibrium interfacial tension calibration of BAK solutions, Langmuir adsorption isotherm fit; type: physicochemical; details: Langmuir fit of b275
Procedure: The dynamic interfacial tension of filtered ophthalmic formulations was measured via pendant drop tensiometry using the commercially automated instrument named Kruss DSA 100 (Drop Shape Analyzer). A pendant drop is a drop of the filtered formulation was suspended at the tip of a 14-gauge needle with air as the surrounding phase. The silhouette of the axisymmetric formulation drop is imaged at regular time intervals and iteratively fit to Young-Laplace equation to measure its dynamic surface tension as a function of time. This robust method is commonly employed due to a high-speed and precise estimation of interfacial tension based on drop curvature and concentration of the formulation. […]
[formula] where Γeq is the equilibrium molar surface concentration, Γ∞ is the maximum molar surface concentration, C is the bulk concentration of the aqueous formulation, α and β are adsorption and desorption constants, R is the ideal gas constant, γO is the interfacial tension of the pure solvent (PBS), γ is the equilibrium interfacial tension recorded after 12 minutes of interfacial surface generation, and T is the operating temperature for acquisition of interfacial tension of drug/BAK formulation (recorded at room temperature, 298 K). […]

[2] = Procedure: The partition coefficients of hydrophilic drugs and BAK in p-HEMA, p-HEMA/t-butyl methacrylate, and p-HEMA/TRIS/t-butyl methacrylate particles were obtained by drug uptake studies. The mass of drug or BAK partitioned into p-HEMA hydrogel matrix was determined by monitoring the amount of drug or BAK lost in the concentrated aqueous drug/PBS or BAK/PBS loading solutions. The amount of drug loss from the concentrated aqueous phase was quantified by time-dependent absorbance measurements using UV-Vis spectrophotometry in a broad spectral range. […]
Time-dependent equilibrium interfacial tension measured via pendant drop tensiometry can be used to quantify the amount of BAK loss from the concentrated aqueous phase. […]
The partition coefficient of BAK in p-HEMA and p-HEMA/Tert-butyl methacrylate particle matrices were obtained by uptake studies. […] The mass of BAK partitioned in the p-HEMA and p-HEMA/TBM particle matrix was determined by monitoring the amount of BAK lost in the concentrated aqueous BAK/PBS loading solutions. The amount of BAK lost from the concentrated aqueous phase was quantified by time-dependent absorbance measurements using UV-Vis spectrophotometry (Genesys™ 10 UV, Thermo Spectronic, Rochester, NY, USA) over a wavelength range of 190-500 nm. […]

Substance	Γ∞ (maximum surface coverage) [1]	β/α (ratio of kinetic rate constants) [1]	partition coefficient for BAK [2]
Benzalkonium chloride [BAK]	0.003309 mol/m^2	462.14 m^3/mol	–
poly(hydroxyethyl methacrylate) [p-HEMA]	–	–	100-500
